In patent US20240158446A1, “CYCLIC COMPOUND HAVING SELECTIVE INHIBITORY ACTION ON KRAS OVER HRAS AND NRAS” (CHUGAI SEIYAKU KABUSHIKI KAISHA, priority 2021, published 2024):

Legend:
[1] = target: GDP-bound KRAS wild-type protein (Homo sapiens, UniProt P01116); assay: Binding to KRAS by surface plasmon resonance (SPR), Single Cycle Kinetics; details: SPR, Single Cycle Kinetics, GDP-bound KRAS wild-type protein; read-out: KRAS KD
[2] = target: GDP-bound NRAS wild-type protein (Homo sapiens, UniProt P01111); assay: Binding to NRAS by surface plasmon resonance (SPR), Single Cycle Kinetics; details: SPR, GDP-bound NRAS wild-type protein vs GDP-bound KRAS wild-type protein
[3] = target: GDP-bound HRAS wild-type protein (Homo sapiens, UniProt P01112); assay: Binding to HRAS by surface plasmon resonance (SPR), Single Cycle Kinetics; details: SPR, GDP-bound HRAS wild-type protein vs GDP-bound KRAS wild-type protein
Chain of GDP-bound HRAS wild-type protein (P01112 whole entry): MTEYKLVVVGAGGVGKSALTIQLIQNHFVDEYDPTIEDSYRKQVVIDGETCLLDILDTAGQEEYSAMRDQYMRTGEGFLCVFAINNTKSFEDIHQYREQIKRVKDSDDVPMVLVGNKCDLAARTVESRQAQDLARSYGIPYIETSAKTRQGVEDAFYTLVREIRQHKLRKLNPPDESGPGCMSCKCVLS

Chain of GDP-bound NRAS wild-type protein (P01111 whole entry): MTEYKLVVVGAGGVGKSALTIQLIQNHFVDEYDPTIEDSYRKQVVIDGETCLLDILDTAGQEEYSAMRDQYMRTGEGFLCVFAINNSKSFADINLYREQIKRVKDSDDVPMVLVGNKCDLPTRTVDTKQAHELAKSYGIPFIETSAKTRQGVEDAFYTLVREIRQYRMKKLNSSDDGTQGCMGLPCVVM
Chain of GDP-bound KRAS wild-type protein (P01116 whole entry): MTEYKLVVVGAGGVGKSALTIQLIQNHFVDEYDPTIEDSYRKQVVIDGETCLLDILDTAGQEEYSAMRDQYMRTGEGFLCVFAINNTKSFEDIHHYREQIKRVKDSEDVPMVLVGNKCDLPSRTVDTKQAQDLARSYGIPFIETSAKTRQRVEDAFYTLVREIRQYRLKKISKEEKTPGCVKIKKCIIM

CCO[C@@H]1C[C@H]2C(=O)NC3(CC(C)(C)C3)C(=O)N(C)[C@@H](C(CC)CC)C(=O)N(C)[C@H](C(=O)N(C)C)CC(=O)N(C)[C@@H](CC3CC3)C(=O)N[C@@H]([C@@H](C)CC)C(=O)N(C)CC(=O)N(C)[C@H]3C/C=C\CCN(C3=O)[C@@H](Cc3ccc(C(F)(F)F)cc3)C(=O)N(C)CC(=O)N[C@@H](CCc3ccc(C(F)(F)F)c(Cl)c3)C(=O)N2C1 [PP2124]
Kd [1]: 0.26 nM | NRAS/KRAS (ratio of KD value for NRAS to KD value for KRAS) [2]: AA (a compound having 20 or more is denoted as AA) | HRAS/KRAS (ratio of KD value for HRAS to KD value for KRAS) [3]: A (a compound having 10 or more and less than 20 is denoted as A)

CCC[C@H]1C(=O)N[C@@H]([C@@H](C)CC)C(=O)N(C)CC(=O)N(C)[C@H]2C/C=C\CCN(C2=O)[C@@H](Cc2ccc(C(F)(F)F)cc2)C(=O)N(C)CC(=O)N[C@@H](CCc2cc(F)c(C(F)(F)F)c(F)c2)C(=O)N2C[C@H](OCC)C[C@H]2C(=O)NC2(CC(C)(C)C2)C(=O)N(C)[C@@H](C(CC)CC)C(=O)N(C)[C@H](C(=O)N(C)C)CC(=O)N1C [PP2125]
Kd [1]: 0.22 nM | NRAS/KRAS (ratio of KD value for NRAS to KD value for KRAS) [2]: AA (a compound having 20 or more is denoted as AA) | HRAS/KRAS (ratio of KD value for HRAS to KD value for KRAS) [3]: A (a compound having 10 or more and less than 20 is denoted as A)

CCO[C@@H]1C[C@H]2C(=O)NC3(CC(C)(C)C3)C(=O)N(C)[C@@H](C(CC)CC)C(=O)N(C)[C@H](C(=O)N(C)C)CC(=O)N(C)[C@@H](COC)C(=O)N[C@@H]([C@@H](C)CC)C(=O)N(C)CC(=O)N(C)[C@H]3C/C=C\CCN(C3=O)[C@@H](Cc3ccc(C(F)(F)F)cc3)C(=O)N(C)CC(=O)N[C@@H](CCc3ccc(C(F)(F)F)c(Cl)c3)C(=O)N2C1 [PP2126]
Kd [1]: 0.23 nM | NRAS/KRAS (ratio of KD value for NRAS to KD value for KRAS) [2]: A (a compound having 10 or more and less than 20 is denoted as A) | HRAS/KRAS (ratio of KD value for HRAS to KD value for KRAS) [3]: B (a compound having 3 or more and less than 10 is denoted as B)

CCO[C@@H]1C[C@H]2C(=O)NC3(CC(C)(C)C3)C(=O)N(C)[C@@H](C(CC)CC)C(=O)N(C)[C@H](C(=O)N(C)C)CC(=O)N(C)[C@@H](CC(C)C)C(=O)N[C@@H]([C@@H](C)CC)C(=O)N(C)CC(=O)N(C)[C@H]3C/C=C\CCN(C3=O)[C@@H](Cc3ccc(C(F)(F)F)cc3)C(=O)N(C)CC(=O)N[C@@H](CCc3cc(F)c(C(F)(F)F)c(F)c3)C(=O)N2C1 [PP2127]
Kd [1]: 0.18 nM | NRAS/KRAS (ratio of KD value for NRAS to KD value for KRAS) [2]: AA (a compound having 20 or more is denoted as AA) | HRAS/KRAS (ratio of KD value for HRAS to KD value for KRAS) [3]: A (a compound having 10 or more and less than 20 is denoted as A)

CCO[C@@H]1C[C@H]2C(=O)NC3(CC(C)(C)C3)C(=O)N(C)[C@@H](C(CC)CC)C(=O)N(C)[C@H](C(=O)N3CCCC3)CC(=O)N(C)[C@@H](COC)C(=O)N[C@@H]([C@@H](C)CC)C(=O)N(C)CC(=O)N(C)[C@H]3C/C=C\CCN(C3=O)[C@@H](Cc3ccc(C(F)(F)F)cc3)C(=O)N(C)CC(=O)N[C@@H](CCc3ccc(C(F)(F)F)c(Cl)c3)C(=O)N2C1 [PP2128]
Kd [1]: 0.4 nM | NRAS/KRAS (ratio of KD value for NRAS to KD value for KRAS) [2]: AA (a compound having 20 or more is denoted as AA) | HRAS/KRAS (ratio of KD value for HRAS to KD value for KRAS) [3]: A (a compound having 10 or more and less than 20 is denoted as A)

CCO[C@@H]1C[C@H]2C(=O)NC3(CC(C)(C)C3)C(=O)N(C)[C@@H](C(CC)CC)C(=O)N(C)[C@H](C(=O)N(C)C)CC(=O)N(C)[C@@H](CC(C)C)C(=O)N[C@@H]([C@@H](C)CC)C(=O)N(C)CC(=O)N(C)[C@H]3C/C=C\CCN(C3=O)[C@@H](Cc3ccc(C(F)(F)F)cc3)C(=O)N(C)CC(=O)N[C@@H](CCc3ccc(C(F)(F)F)c(Cl)c3)C(=O)N2C1 [PP2132]
Kd [1]: 0.27 nM | NRAS/KRAS (ratio of KD value for NRAS to KD value for KRAS) [2]: AA (a compound having 20 or more is denoted as AA) | HRAS/KRAS (ratio of KD value for HRAS to KD value for KRAS) [3]: A (a compound having 10 or more and less than 20 is denoted as A)

CCO[C@@H]1C[C@H]2C(=O)NC3(CC(C)(C)C3)C(=O)N(C)[C@@H](C(CC)CC)C(=O)N(C)[C@H](C(=O)N(C)C)CC(=O)N(C)[C@@H](CC3CCC3)C(=O)N[C@@H]([C@@H](C)CC)C(=O)N(C)CC(=O)N(C)[C@H]3C/C=C\CCN(C3=O)[C@@H](Cc3ccc(C(F)(F)F)cc3)C(=O)N(C)CC(=O)N[C@@H](CCc3cc(F)c(C(F)(F)F)c(F)c3)C(=O)N2C1 [PP2133]
Kd [1]: 0.19 nM | NRAS/KRAS (ratio of KD value for NRAS to KD value for KRAS) [2]: AA (a compound having 20 or more is denoted as AA) | HRAS/KRAS (ratio of KD value for HRAS to KD value for KRAS) [3]: A (a compound having 10 or more and less than 20 is denoted as A)

CCO[C@@H]1C[C@H]2C(=O)NC3(CC(C)(C)C3)C(=O)N(C)[C@@H](C(CC)CC)C(=O)N(C)[C@H](C(=O)N(C)C)CC(=O)N(C)[C@@H](C(C)C)C(=O)N[C@@H]([C@@H](C)CC)C(=O)N(C)CC(=O)N(C)[C@H]3C/C=C\CCN(C3=O)[C@@H](Cc3ccc(C(F)(F)F)cc3)C(=O)N(C)CC(=O)N[C@@H](CCc3cc(F)c(C(F)(F)F)c(F)c3)C(=O)N2C1 [PP2135]
Kd [1]: 0.49 nM | NRAS/KRAS (ratio of KD value for NRAS to KD value for KRAS) [2]: AA (a compound having 20 or more is denoted as AA) | HRAS/KRAS (ratio of KD value for HRAS to KD value for KRAS) [3]: A (a compound having 10 or more and less than 20 is denoted as A)

CCO[C@@H]1C[C@H]2C(=O)NC3(CC(C)(C)C3)C(=O)N(C)[C@@H](C(CC)CC)C(=O)N(C)[C@H](C(=O)N(C)C)CC(=O)N(C)[C@@H](CC3CC3)C(=O)N[C@@H]([C@@H](C)CC)C(=O)N(C)CC(=O)N(C)[C@H]3C/C=C\CCN(C3=O)[C@@H](Cc3ccc(C)cc3)C(=O)N(C)CC(=O)N[C@@H](CCc3cc(F)c(C(F)(F)F)c(F)c3)C(=O)N2C1 [PP2137]
Kd [1]: 0.37 nM | NRAS/KRAS (ratio of KD value for NRAS to KD value for KRAS) [2]: A (a compound having 10 or more and less than 20 is denoted as A) | HRAS/KRAS (ratio of KD value for HRAS to KD value for KRAS) [3]: A (a compound having 10 or more and less than 20 is denoted as A)

CCO[C@@H]1C[C@H]2C(=O)NC3(CC(C)(C)C3)C(=O)N(C)[C@@H](C(CC)CC)C(=O)N(C)[C@H](C(=O)N(C)C)CC(=O)N(C)[C@@H](CC3CCC3)C(=O)N[C@@H]([C@@H](C)CC)C(=O)N(C)CC(=O)N(C)[C@H]3C/C=C\CCN(C3=O)[C@@H](Cc3ccc(C(F)(F)F)cc3)C(=O)N(C)CC(=O)N[C@@H](CCc3ccc(C(F)(F)F)c(Cl)c3)C(=O)N2C1 [PP2138]
Kd [1]: 0.44 nM | NRAS/KRAS (ratio of KD value for NRAS to KD value for KRAS) [2]: A (a compound having 10 or more and less than 20 is denoted as A) | HRAS/KRAS (ratio of KD value for HRAS to KD value for KRAS) [3]: A (a compound having 10 or more and less than 20 is denoted as A)

CCO[C@@H]1C[C@H]2C(=O)NC3(CC(C)(C)C3)C(=O)N(C)[C@@H](C(CC)CC)C(=O)N(C)[C@H](C(=O)N(C)C)CC(=O)N(C)[C@@H](C(C)C)C(=O)N[C@@H]([C@@H](C)CC)C(=O)N(C)CC(=O)N(C)[C@H]3C/C=C\CCN(C3=O)[C@@H](Cc3ccc(C(F)(F)F)cc3)C(=O)N(C)CC(=O)N[C@@H](CCc3ccc(C(F)(F)F)c(Cl)c3)C(=O)N2C1 [PP2140]
Kd [1]: 0.7 nM | NRAS/KRAS (ratio of KD value for NRAS to KD value for KRAS) [2]: AA (a compound having 20 or more is denoted as AA) | HRAS/KRAS (ratio of KD value for HRAS to KD value for KRAS) [3]: A (a compound having 10 or more and less than 20 is denoted as A)
